Assay results reported in ChEMBL document CHEMBL1131216, “Anhydrolide macrolides. 2. Synthesis and antibacterial activity of 2,3-anhydro-6-O-methyl 11,12-carbazate erythromycin A analogues” (1998).
≈ marks a conversion by molar mass, not a printed value.

What was measured:
Type in all cases: functional
Streptococcus pneumoniae [1] = assay: In vitro antibacterial activity of 5649 strain of Gram positive bacteria Streptococcus pneumoniae
Streptococcus pneumoniae [2] = assay: In vitro antibacterial activity of 5979 strain of Gram positive bacteria Streptococcus pneumoniae
Streptococcus pyogenes [3] = assay: In vitro antibacterial activity of PIU2584 strain of Gram positive bacteria Streptococcus pyogenes
Staphylococcus aureus [4] = assay: In vitro antibacterial activity of A-5278 strain of Gram positive bacteria Staphylococcus aureus
Streptococcus pyogenes [5] = assay: In vitro antibacterial activity of EES61 strain of Gram positive bacteria Streptococcus pyogenes
Streptococcus pyogenes [6] = assay: In vitro antibacterial activity of 930 strain of Gram positive bacteria Streptococcus pyogenes
Streptococcus pneumoniae [7] = assay: In vitro antibacterial activity of ATCC 6303 strain of Gram positive bacteria Streptococcus pneumoniae
Staphylococcus aureus [8] = assay: In vitro antibacterial activity of 6538P strain of Gram positive bacteria Staphylococcus aureus
Staphylococcus aureus [9] = assay: In vitro antibacterial activity of A5177 strain of Gram positive bacteria Staphylococcus aureus
Haemophilus influenzae = assay: In vitro antibacterial activity of DILL strain of Gram negative bacteria Haemophilus influenzae
Staphylococcus aureus [10] = assay: In vivo antibacterial activity of NCTC-10649 strain of Gram positive bacteria Staphylococcus aureus (95% confidence interval)
Streptococcus pneumoniae [11] = assay: In vivo antibacterial activity of ATCC 6303 strain of Gram positive bacteria Streptococcus pneumoniae
Streptococcus pneumoniae [12] = assay: In vivo antibacterial activity of ATCC 6303 strain of Gram positive bacteria Streptococcus pneumoniae (95% confidence interval)
Staphylococcus aureus [13] = assay: In vivo antibacterial activity of NCTC-10649 strain of Gram positive bacteria Staphylococcus aureus

Compound	MIC (Streptococcus pneumoniae [1]) [µg/mL]	MIC (Streptococcus pneumoniae [2]) [µg/mL]	MIC (Streptococcus pyogenes [3]) [µg/mL]	MIC (Staphylococcus aureus [4]) [µg/mL]	MIC (Streptococcus pyogenes [5]) [µg/mL]	MIC (Streptococcus pyogenes [6]) [µg/mL]	MIC (Streptococcus pneumoniae [7]) [µg/mL]	MIC (Staphylococcus aureus [8]) [µg/mL]	MIC (Staphylococcus aureus [9]) [µg/mL]	MIC (Haemophilus influenzae) [µg/mL]	MIC (Streptococcus pneumoniae [11]) [µg/mL]	MIC (Staphylococcus aureus [13]) [µg/mL]	ED50 (Staphylococcus aureus [10]) [mg/kg/day]	ED50 (Streptococcus pneumoniae [12]) [mg/kg/day]
CC[C@H]1OC(=O)/C(C)=C/[C@H](C)[C@@H](O[C@@H]2O[C@H](C)C[C@H](N(C)C)[C@H]2O)[C@@](C)(OC)C[C@@H](C)C(=O)[C@H](C)[C@H]2N(NC/C=C/c3ccc([N+](=O)[O-])o3)C(=O)O[C@]12C	0.5 (≈ 0.655 µM)	> 128	0.25 (≈ 0.328 µM)	> 100	0.004 (≈ 0.00524 µM)	64 (≈ 83.9 µM)	0.03 (≈ 0.0393 µM)	0.02 (≈ 0.0262 µM)	0.01 (≈ 0.0131 µM)	2 (≈ 2.62 µM)	–	–	–	–
CC[C@H]1OC(=O)/C(C)=C/[C@H](C)[C@@H](O[C@@H]2O[C@H](C)C[C@H](N(C)C)[C@H]2O)[C@@](C)(OC)C[C@@H](C)C(=O)[C@H](C)[C@H]2N(NCc3ccc(O)c(O)c3)C(=O)O[C@]12C	2 (≈ 2.73 µM)	> 128	16 (≈ 21.8 µM)	> 100	1 (≈ 1.36 µM)	> 128	1 (≈ 1.36 µM)	0.78 (≈ 1.06 µM)	0.78 (≈ 1.06 µM)	32 (≈ 43.6 µM)	–	–	–	–
CC[C@H]1OC(=O)/C(C)=C/[C@H](C)[C@@H](O[C@@H]2O[C@H](C)C[C@H](N(C)C)[C@H]2O)[C@@](C)(OC)C[C@@H](C)C(=O)[C@H](C)[C@H]2N(NCCCn3nnc4ccccc43)C(=O)O[C@]12C	1 (≈ 1.3 µM)	> 128	1 (≈ 1.3 µM)	> 100	0.03 (≈ 0.0389 µM)	> 128	0.03 (≈ 0.0389 µM)	0.2 (≈ 0.259 µM)	0.1 (≈ 0.13 µM)	4 (≈ 5.19 µM)	–	–	–	–
CC[C@H]1OC(=O)/C(C)=C/[C@H](C)[C@@H](O[C@@H]2O[C@H](C)C[C@H](N(C)C)[C@H]2O)[C@@](C)(OC)C[C@@H](C)C(=O)[C@H](C)[C@H]2N(NC/C=C/c3ccc([N+](=O)[O-])cc3)C(=O)O[C@]12C	1 (≈ 1.29 µM)	64 (≈ 82.8 µM)	1 (≈ 1.29 µM)	100 (≈ 129 µM)	0.06 (≈ 0.0776 µM)	32 (≈ 41.4 µM)	0.03 (≈ 0.0388 µM)	0.2 (≈ 0.259 µM)	0.2 (≈ 0.259 µM)	8 (≈ 10.4 µM)	0.004 (≈ 0.00518 µM)	0.2 (≈ 0.259 µM)	50.1	16.8
CC[C@H]1OC(=O)/C(C)=C/[C@H](C)[C@@H](O[C@@H]2O[C@H](C)C[C@H](N(C)C)[C@H]2O)[C@@](C)(OC)C[C@@H](C)C(=O)[C@@H](C)[C@H]2N(N)C(=O)O[C@]12C	16 (≈ 26.2 µM)	> 128	32 (≈ 52.3 µM)	> 100	8 (≈ 13.1 µM)	> 128	8 (≈ 13.1 µM)	50 (≈ 81.7 µM)	50 (≈ 81.7 µM)	> 128	–	–	–	–

Further lines, with some results ahead:

MIC (Streptococcus pneumoniae [1]) [µg/mL]	MIC (Streptococcus pneumoniae [2]) [µg/mL]	MIC (Streptococcus pyogenes [3]) [µg/mL]	MIC (Staphylococcus aureus [4]) [µg/mL]	MIC (Streptococcus pyogenes [5]) [µg/mL]	MIC (Streptococcus pyogenes [6]) [µg/mL]	MIC (Streptococcus pneumoniae [7]) [µg/mL]	MIC (Staphylococcus aureus [8]) [µg/mL]	MIC (Staphylococcus aureus [9]) [µg/mL]	MIC (Haemophilus influenzae) [µg/mL]	MIC (Streptococcus pneumoniae [11]) [µg/mL]	MIC (Staphylococcus aureus [13]) [µg/mL]	Compound	ED50 (Staphylococcus aureus [10]) [mg/kg/day]	ED50 (Streptococcus pneumoniae [12]) [mg/kg/day]
1 (≈ 1.31 µM)	16 (≈ 20.9 µM)	1 (≈ 1.31 µM)	25 (≈ 32.7 µM)	0.125 (≈ 0.164 µM)	16 (≈ 20.9 µM)	0.03 (≈ 0.0392 µM)	0.1 (≈ 0.131 µM)	0.05 (≈ 0.0654 µM)	16 (≈ 20.9 µM)	–	–	CC[C@H]1OC(=O)/C(C)=C/[C@H](C)[C@@H](O[C@@H]2O[C@H](C)C[C@H](N(C)C)[C@H]2O)[C@@](C)(OC)C[C@@H](C)C(=O)[C@H](C)[C@H]2N(NCCCc3ccc(Cl)cc3)C(=O)O[C@]12C	–	–
2 (≈ 2.68 µM)	> 128	2 (≈ 2.68 µM)	> 100	0.03 (≈ 0.0402 µM)	> 128	0.03 (≈ 0.0402 µM)	0.2 (≈ 0.268 µM)	0.2 (≈ 0.268 µM)	16 (≈ 21.4 µM)	–	–	CC[C@H]1OC(=O)/C(C)=C/[C@H](C)[C@@H](O[C@@H]2O[C@H](C)C[C@H](N(C)C)[C@H]2O)[C@@](C)(OC)C[C@@H](C)C(=O)[C@H](C)[C@H]2N(NCCCc3ccccc3O)C(=O)O[C@]12C	–	–
2 (≈ 2.73 µM)	> 64	1 (≈ 1.37 µM)	> 100	0.03 (≈ 0.041 µM)	> 64	0.125 (≈ 0.171 µM)	0.2 (≈ 0.273 µM)	0.2 (≈ 0.273 µM)	8 (≈ 10.9 µM)	–	–	CC[C@H]1OC(=O)/C(C)=C/[C@H](C)[C@@H](O[C@@H]2O[C@H](C)C[C@H](N(C)C)[C@H]2O)[C@@](C)(OC)C[C@@H](C)C(=O)[C@H](C)[C@H]2N(NCc3ccc(OC)cc3)C(=O)O[C@]12C	–	–
0.5 (≈ 0.67 µM)	> 128	1 (≈ 1.34 µM)	> 100	0.06 (≈ 0.0804 µM)	128 (≈ 172 µM)	0.03 (≈ 0.0402 µM)	0.1 (≈ 0.134 µM)	0.1 (≈ 0.134 µM)	4 (≈ 5.36 µM)	–	–	CC[C@H]1OC(=O)/C(C)=C/[C@H](C)[C@@H](O[C@@H]2O[C@H](C)C[C@H](N(C)C)[C@H]2O)[C@@](C)(OC)C[C@@H](C)C(=O)[C@H](C)[C@H]2N(NCCCc3cccc(O)c3)C(=O)O[C@]12C	–	–
1 (≈ 1.39 µM)	> 128	1 (≈ 1.39 µM)	> 100	0.06 (≈ 0.0837 µM)	> 128	0.25 (≈ 0.349 µM)	0.78 (≈ 1.09 µM)	0.78 (≈ 1.09 µM)	16 (≈ 22.3 µM)	–	–	CC[C@H]1OC(=O)/C(C)=C/[C@H](C)[C@@H](O[C@@H]2O[C@H](C)C[C@H](N(C)C)[C@H]2O)[C@@](C)(OC)C[C@@H](C)C(=O)[C@H](C)[C@H]2N(NCc3ccc(N)cc3)C(=O)O[C@]12C	–	–
